# Entries after “also recorded” stand apart in the source; their conditions may differ. Where a SMILES comes first, the peptide text is derived from it. Bridges are numbered along the chain shown (N, C = ends). Triazole bridges read from a SMILES are 1,4-linked. [ ]: non-standard residue; d: D form. The star is where a group is joined. Biotin = O=C1N[C@H]2[C@H](CS[C@H]2CCCCC(=O)*)N1; Lys(N3) = [N-]=[N+]=NCCCC[C@H](N)C(=O)O; PEG5 = NCCOCCOCCOCCOCCOCCC(=O)O; Pra = C#CC[C@H](N)C(=O)O
# Assays:
# [1] = tested on: Escherichia coli (E. coli) cells; assay: Whole-cell ELISA of biotinylated PCC binding; conditions: biotinylated PCC at 5 μM
# Method: (§1) Whole-cell ELISAs. Detection of the binding of biotinylated PCCs to bacterial surface was performed as follows. 108 bacteria from a culture grown overnight were used for each test. Bacteria were incubated with PBS containing 1% BSA (PBS-BSA) for 1 h at 37° C., washed once with PBS, and then incubated with 5 μM of the biotinylated PCC in PBS-BSA for 1 h at 37° C. After washing thrice with PBS to remove unbound PCCs, bacteria were incubated with Streptavidin-HRP (1:1000) for 1 h at 37° C. Bacteria were washed thoroughly and the TMB reagent was added until visible coloration was observed. The reaction was quenched using 2N H2SO4 and absorbance was measured at 450 nm.
# [2] = tested on: MrkA synthetic epitopes (SynEp 1-4); assay: Epitope selectivity sandwich ELISA with immobilized SynEps; type: binding, Klebsiella pneumoniae; conditions: DNP-conjugated ligand at 500 nM, anti-DNP detection
# Method: The particular epitope target to which cy(LLFFF) (SEQ ID NO:5) binds was next identified. A sandwich ELISA was performed in which the biotinylated SynEps were immobilized. The lead ligand cy(LLFFF) (SEQ ID NO:5), conjugated to a 2,4-dinitrophenyl (DNP) moiety, was titrated at a 500 nM concentration, and anti-DNP was used as a detection antibody. […] A background level for this assay was established using a biotinylated 6-mer polyethylene glycol (biotin-PEG6). […] As the native epitope for SynEp1 has a GRAVY score of 1.01, while the native versions of other SynEps range between −0.9 and −0.28, the negative ELISA signals may arise from the relatively high hydrophobicity of SynEp 1 versus others. The blocking may also result from the reactivity of the cysteine residue in SynEp 1. […] (SEQ ID NO:2) in native MrkA.
# In vitro ELISA assays. ELISA assays for MrkA-binding and epitope selectivity were performed on clear NeutrAvidin Coated High Capacity Plates (ThermoFisher, 15507). The buffer used for all washes and to dissolve all compounds was TBST+0.1% BSA (TBS+0.05% Tween 20+0.1% BSA, pH 7.3) and, unless otherwise stated, steps were conducted at room temperature. Each wash involved a brief 20 s agitation, and all conjugation, blocking, and incubation steps were performed with gentle agitation over the entire stated time period. […]
# [3] = biological target: T1, full-length recombinant MrkA protein (Klebsiella pneumoniae, UniProt P12267); assay: Sandwich ELISA of PCC binding to full-length MrkA; conditions: sandwich ELISA, biotinylated PCC immobilized
# T1 construct: purchased MyBiosource MBS1248970
# T1 sequence (P12267 23-202): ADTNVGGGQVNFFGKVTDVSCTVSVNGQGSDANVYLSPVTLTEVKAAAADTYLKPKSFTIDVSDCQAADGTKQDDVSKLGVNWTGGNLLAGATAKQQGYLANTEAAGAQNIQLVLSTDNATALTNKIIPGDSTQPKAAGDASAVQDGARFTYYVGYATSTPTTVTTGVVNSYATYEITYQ
# Method: The screen yielded 26 hits (Table 2) that were sequenced, scaled up, and tested for binding to full-length recombinant MrkA in solution by single-point sandwich Enzyme-linked immunoassays (ELISAs) (FIG. 8). HPraGly is present before X1 in each peptide and Az4 follows X5 in each peptide.
# An alanine scan was performed to establish which residues of cy(LLFFF) (SEQ ID NO:5) contribute most to MrkA binding. In this assay, a sandwich ELISA is used to quantify the affinity of several cy(LLFFF) (SEQ ID NO:5) analogues, in which one residue is substituted with an alanine, towards full-length MrkA protein. The ELISA results in FIG. 4 show lower signal for every alanine-substituted cy(LLFFF) (SEQ ID NO:5) analogue compared to unmodified cy(LLFFF) (SEQ ID NO:5), establishing that the native compound has the highest affinity. […] Thus, these two C-terminal phenylalanine residues (FIG. 3A, arrows in inset) play critical roles in MrkA binding, and are targets for modifications to improve binding. Another important detail of these alanine scan results is a strong dependence of MrkA binding on the residue position, independent of residue type. For example, cy(LLAFF) (SEQ ID NO:9) and cy(LLFFA) (SEQ ID NO:11) have very different binding affinities, despite having the same phenylalanine-to-alanine substitution.
# In vitro ELISA assays. ELISA assays for MrkA-binding and epitope selectivity were performed on clear NeutrAvidin Coated High Capacity Plates (ThermoFisher, 15507). The buffer used for all washes and to dissolve all compounds was TBST+0.1% BSA (TBS+0.05% Tween 20+0.1% BSA, pH 7.3) and, unless otherwise stated, steps were conducted at room temperature. Each wash involved a brief 20 s agitation, and all conjugation, blocking, and incubation steps were performed with gentle agitation over the entire stated time period. The general procedure for an ELISA assay was: wash 3×200 μL/well, conjugate with 2 μM of biotinylated compound for 2 h at room temperature (100 μL/well), wash 3×200 μL/well, blocked overnight in 5 wt % milk at 4° C., wash […] with wash buffer, incubate with titrated compound (e.g., MrkA or epitope) for 1 h, […], incubate with primary antibody […] for 1 h (100 μL/well), wash 3×200 μL/well, incubate with 1:2,000 anti-rabbit secondary antibody-horseradish peroxidase conjugate (Cell signaling Technologies, 7074S) for 1 h, 3×200 μL/well, develop with the Microwell Peroxidase Substrate System (2-C) (SeraCare, 5120-0047) using 100 μL/well for 1-40 minutes, and quench using 1 M H2SO4 (aq.) at 100 μL/well. For MrkA binding assays, biotinylated PCCs were conjugated to the well surface, recombinant MrkA with an N-terminal 6×His-SUMO-tag (MyBiosource, MBS1248970) was titrated at the desired concentration, and the primary antibody was His-tag antibody, pAb, Rabbit (Genscript, A00174) at a 1:5,000 dilution. For epitope selectivity assays, biotinylated SynEps were conjugated, DNP-conjugated AR-PCCs were titrated at a desired concentration, and the primary antibody was anti-DNP antibody produced in Rabbit (Sigma-Aldrich, D9656) at a 1:8,000 dilution. […] For binding tests in the context of mouse sera, the “titrated compound” described in the steps above was dispersed in a solution containing the desired concentration of mouse serum.
# [4] = tested on: Salmonella typhimurium (S. typhimurium) cells; assay: Whole-cell ELISA of biotinylated PCC binding; conditions: biotinylated PCC at 5 μM
# Method: as §1
smiles,measurement,setting,value
CC(C)C[C@@H]1NC(=O)[C@@H](NC(=O)CCOCCOCCOCCOCCOCCNC(=O)CCCC[C@@H]2SC[C@@H]3NC(=O)N[C@@H]32)Cc2cn(nn2)CCCC[C@@H](C(N)=O)NC(=O)[C@H](Cc2ccccc2)NC(=O)[C@H](Cc2ccccc2)NC(=O)[C@H](Cc2ccccc2)NC(=O)[C@H](CC(C)C)NC1=O [cy(LLFFF)] ({Biotin-PEG5}-[Pra]LLFFF[Lys(N3)]-NH2; triazole 1-7; N-terminus and C-terminus assumed),"whole-cell ELISA signal, E. coli",[1],small absorbances; also recorded: only weak signals
same,binding to synthetic epitopes (SynEp selectivity),[2],preferably bind synthetic epitope 2; also recorded: highest signals from SynEp 2; also recorded: selectively binds synthetic epitope 2 versus other targeted epitopes
same,EC50,[3],50 nM
same,"whole-cell ELISA signal, S. typhimurium",[4],small absorbances; also recorded: only weak signals
